In ChEMBL document CHEMBL3132760, “Investigating -secretase protein interactions in live cells using active site-directed clickable dual-photoaffinity probes” (Medchemcomm, 2014):
pIC50: −log10 of the molar value.

Each compound was assayed against Gamma-secretase (assay: Inhibition of gamma-secretase (unknown origin) expressed in CHO cells expressing APP assessed as inhibition of amyloid beta 42 production).
Assay type: cell-based, Homo sapiens
In the case of `C#CCCCC(=O)Nc1ccc(C(=O)c2ccc(NC(=O)COCCOCCOCC(=O)NCCCOCCOCCOCCCNC(=O)[C@H](Cc3ccccc3)NC(=O)[C@H](CC(C)C)NC(=O)[C@H](Cc3ccccc3)C[C@@H](O)[C@H](Cc3ccccc3)NC(=O)OC(C)(C)C)cc2)cc1`, the pIC50 was 7.64. In the case of `C#CCOc1ccc(C(=O)c2ccc(OCCOCCOCCNC(=O)[C@H](Cc3ccccc3)NC(=O)[C@H](CC(C)C)NC(=O)[C@H](Cc3ccccc3)C[C@@H](O)[C@H](Cc3ccccc3)NC(=O)OC(C)(C)C)cc2)cc1`, the pIC50 was 9.00. `C#CCCCC(=O)Nc1ccc(C(=O)c2ccc(NC(=O)COCCOCCOCC(=O)NCCCCCNC(=O)[C@H](Cc3ccccc3)NC(=O)[C@H](CC(C)C)NC(=O)[C@H](Cc3ccccc3)C[C@@H](O)[C@H](Cc3ccccc3)NC(=O)OC(C)(C)C)cc2)cc1` was tested, and the pIC50 was 7.92. In the case of `C#CCCCC(=O)Nc1ccc(C(=O)c2ccc(NC(=O)COCCOCCOCC(=O)NCCCCCNC(=O)[C@H](Cc3ccc(C(=O)c4ccccc4)cc3)NC(=O)[C@H](CC(C)C)NC(=O)[C@H](Cc3ccccc3)C[C@@H](O)[C@H](Cc3ccccc3)NC(=O)OC(C)(C)C)cc2)cc1`, the pIC50 was 7.48. Compound `C#CCOc1ccc(C(=O)c2ccc(OCCOCCOCCNC(=O)[C@H](Cc3ccc(C(=O)c4ccccc4)cc3)NC(=O)[C@H](CC(C)C)NC(=O)[C@H](Cc3ccccc3)C[C@@H](O)[C@H](Cc3ccccc3)NC(=O)OC(C)(C)C)cc2)cc1` has a pIC50 of 8.82. `C#CCCCC(=O)Nc1ccc(C(=O)c2ccc(NC(=O)COCCOCCOCC(=O)NCCCOCCOCCOCCCNC(=O)[C@H](Cc3ccc(C(=O)c4ccccc4)cc3)NC(=O)[C@H](CC(C)C)NC(=O)[C@H](Cc3ccccc3)C[C@@H](O)[C@H](Cc3ccccc3)NC(=O)OC(C)(C)C)cc2)cc1` showed a pIC50 of 7.70. Work on `C#CCCCCNC(=O)[C@H](Cc1ccccc1)NC(=O)[C@H](CC(C)C)NC(=O)[C@H](Cc1ccccc1)C[C@@H](O)[C@H](Cc1ccccc1)NC(=O)c1ccc(C(=O)c2ccccc2)cc1` yielded a pIC50 of less than 6.00. In the case of `C#CCCCCNC(=O)[C@H](Cc1ccc(C(=O)c2ccccc2)cc1)NC(=O)[C@H](CC(C)C)NC(=O)[C@H](Cc1ccccc1)C[C@@H](O)[C@H](Cc1ccccc1)NC(=O)c1ccc(C(=O)c2ccccc2)cc1`, the pIC50 was 6.74.
